In the NIST ThermoML archive (doi:10.1021/je050498q):
± gives the expanded uncertainty stated by the source.

What was measured:
[1] = wn = mass fraction of the nth substance listed; conditions: 101 kPa, Liquid, w2 = 0
[2] = refractive index (Na D-line) (dimensionless); wn = mass fraction of the nth substance listed; conditions: 101 kPa, Liquid, w2 = 0

viscosity ([1]; 298.15 K): 0.89 ± 0.023 mPa·s
viscosity ([1]; 308.15 K): 0.729 ± 0.019 mPa·s
viscosity ([1]; 318.15 K): 0.6 ± 0.017 mPa·s
refractive index ([2]; 298.15 K): 1.3325 ± 0.0007
refractive index ([2]; 308.15 K): 1.3313 ± 0.0007
refractive index ([2]; 318.15 K): 1.33 ± 0.0007
Structure (SMILES): O [water] + O=C([O-])[C@H](O)[C@@H](O)C(=O)[O-].[Na+].[Na+]
